Values after ≈ are worked out from the molar mass of the structure shown.
Test system: E. coli strain isolated from a patient with a urinary tract infection
Assay: microbe, parasite or virus in culture
Details: Escherichia coli, read-out: minimum inhibitory concentration

- MIC: 64 mg/L (≈ 269 µM)
SMILES: O=C1CN(/N=C/c2ccc([N+](=O)[O-])o2)C(=O)N1 [nit, Nitrofurantoin]
